The conditions of data set [1]: solution in water containing 0.1 g per 1 ml.
Another data set can be described thus: stability, expiry date. It is filed as physicochemical. The conditions noted are these: identified by State Food and Drug Administration.
Another data set can be described thus: dissolving rate. It is filed as physicochemical.
Another data set has as its system actistaphylococcus. The conditions noted are these: cited from earlier work.
Another data set concerns listeria. The note with it: cited from earlier work.
The next data set deals with shigella. The note with it: cited from earlier work.
For another data set, the system named is Streptococcus pneumoniae. The conditions noted are these: cited from earlier work.
The next data set has as its system P. aeruginosa. The note with it: cited from earlier work.
The subject of a further data set is bacillus anthracis. The note with it: cited from earlier work.
The test system of the next data set is Typhoid bacillus. The note with it: cited from earlier work.
Another data set relates to neisseria. The conditions noted are these: cited from earlier work.
For another data set, the system named is klebsiella pneumoniae. The conditions noted are these: cited from earlier work.
The subject of data set [2] is streptococcus haemolytica. The conditions noted are these: cited from earlier work.
The test system of another data set is proteus mirabilis. The note with it: cited from earlier work.
A further data set relates to Gram-positive coccus. The conditions noted are these: except enterococcus, methicillin-resistant staphylococcus; cited from earlier work.
The test system of another data set is other enterobacteriaceae. The conditions noted are these: cited from earlier work.
For data set [3], the system named is PPNG (Penicillinase-Producing Neisseria gonorrheae). The conditions noted are these: cited from earlier work.
For another data set, the system named is acinetobacter. The note with it: cited from earlier work.
The next data set deals with partial E.coli. The note with it: cited from earlier work.
The test system of a further data set is Haemophilus influenzae. The note with it: cited from earlier work.
Data set [4] relates to Corynebacterium diphtheriae. The note with it: cited from earlier work.

Each structure is given as a SMILES string.

Consider `Cc1nnc(SCC2=C(C(=O)[O-])N3C(=O)[C@@H](NC(=O)Cn4cnnn4)[C@H]3SC2)s1.O.O.O.O.O.[Na+]` [cefazolin sodium pentahydrate], for which the pH value in [1] was 4.8-6.3. Besides, in “stability, expiry date”, the expiry date is recorded as 24 months. Moreover, the dissolving rate entry in “dissolving rate” was “rapid dissolving rate”.

`Cc1nnc(SCC2=C(C(=O)O)N3C(=O)[C@@H](NC(=O)Cn4cnnn4)[C@H]3SC2)s1` [Cefazolin sodium]: the antibacterial activity entry with actistaphylococcus is “low antibacterial activity”; in the data set with klebsiella pneumoniae, “good antibacterial activity”; in the data set with proteus mirabilis, “good antibacterial activity”; with Gram-positive coccus it was “excellent antibacterial activity”; in the data set with partial E.coli it was “good antibacterial activity”. Moreover, the sensitivity entry in the data set with listeria is “very sensitive”; in the data set with shigella, “sensitive”; with Streptococcus pneumoniae, “highly sensitive”; with P. aeruginosa it was “resistant”; in the data set on bacillus anthracis, “very sensitive”; in the data set on Typhoid bacillus, “sensitive”. The sensitivity entry with neisseria was “sensitive”; in data set [2] it was “highly sensitive”; in the data set with other enterobacteriaceae, “resistant”; in [3] it was “resistant”; in the data set with acinetobacter it was “resistant”; in the data set on Haemophilus influenzae, “intermediate sensitivity”. Besides, in [4], the sensitivity result was “very sensitive”.

The record behind these values is US20090299056A1 (priority 2005, published 2009).
